The results in this text go back to patent US8143426B2, “IAP inhibitors” (TetraLogic Pharmaceuticals Corporation, priority 2006, dated 2012).

pKd: −log10 of the molar value.

T1 sequence (P98170 241-356 limits assumed): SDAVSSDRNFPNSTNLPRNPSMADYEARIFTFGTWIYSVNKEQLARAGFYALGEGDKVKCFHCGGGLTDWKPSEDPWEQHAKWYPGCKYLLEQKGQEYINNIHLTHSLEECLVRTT

One test concerns the target T1, XIAP BIR3 (Homo sapiens, UniProt P98170).
T1 construct: 40 nM of an IAP-BIR3
Kind of test: Fluorescence polarization binding of IAP antagonists to IAP-BIR3 (competition with AbuRPF-K(5-Fam)-NH2). Conditions: Table 1, monomeric IAP antagonists (sugar-modified). As for the experimental part: The binding affinity of illustrative compounds of the present invention to an IAP was determined substantially as described by Nikolovska-Coleska, Z. et. al. (Analytical Biochemistry (2004), vol. 332:261-273) using a variety of fluorogenic substrates and is reported as a Kd value. Briefly, various concentrations of IAP antagonists were mixed with 5 nM fluorescently labeled peptide (AbuRPF-K(5-Fam)-NH2) and 40 nM of an IAP-BIR3 for 15 min at RT in […] of 0.1M Potassium Phosphate buffer, pH 7.5 containing […] bovine g-globulin. Following incubation, the polarization values (mP) were measured on a Victor2V using a 485 nm excitation filter and a 520 nm emission filter. IC50 values were determined from the plot using nonlinear least-squares analysis using GraphPad Prism.
(In general: In fluorescence polarisation assays a small probe gives low polarisation when free and higher when bound to something large.)
`CN[C@@H](C)C(=O)N[C@H](C(=O)N1CCC[C@H]1Cc1c(-c2ccc(F)cc2)n(C2OC[C@@H](O)[C@H](O)[C@H]2O)c2cc(F)ccc12)C(C)C` (some centres unmarked) [B]: the pKd was > 7.00.

For `CNC(C)C(=O)NC(C(=O)N1CCCC1Cc1c(-c2ccc(F)cc2)n(C2OCC(O)C(O)C2O)c2cc(F)ccc12)C(C)(C)C` (centres unmarked) [Compound A], the negative logarithm of the Kd (pKd) was > 7.00. With `CNC(C)C(=O)NC(C(=O)N1CCCC1Cc1cn(C2OC(C)C(O)C(O)C2O)c2cc(F)ccc12)C(C)(C)C` (centres unmarked) [F], the pKd is > 7.00. Consider `CNC(C)C(=O)NC(C(=O)N1CCCC1Cc1cn(C2OC(C)C(O)C(O)C2O)c2cc(F)ccc12)C1CCCCC1` (centres unmarked) [G], for which the pKd was > 7.00. `CNC(C)C(=O)NC(C(=O)N1CCCC1Cc1cn(C2OC(C)C(O)C(O)C2O)c2cc(F)ccc12)C(C)C` (centres unmarked) [H]: the pKd was > 7.00. The same measure, in the same setting: for `CN[C@@H](C)C(=O)N[C@H](C(=O)N1CCC[C@H]1Cc1cn(C2OC[C@@H](O)[C@H](O)[C@H]2O)c2cc(F)ccc12)C(C)(C)C` (some centres unmarked) [N] the value was > 7.00; for `CN[C@@H](C)C(=O)N[C@H](C(=O)N1CCC[C@H]1Cc1c(-c2ccc(F)cc2)n(C2O[C@@H](C)[C@@H](O)[C@@H](O)[C@@H]2O)c2cc(F)ccc12)[C@@H](C)OC` (some centres unmarked) [O], > 7.00.

Regarding `CNC(C)C(=O)NC(C(=O)N1CC(O)CC1Cc1c(-c2ccc(F)cc2)n(C2OC(C)C(O)C(O)C2O)c2cc(F)ccc12)C(C)(C)C` (centres unmarked) [T], the pKd is > 7.00. The same measure, in the same setting: the result for `CNC(C)C(=O)NC(C(=O)N1CC(O)CC1Cc1c(-c2ccc(F)cc2)n(C2OC(C)C(O)C(O)C2O)c2cc(F)ccc12)C(C)OC` (centres unmarked) [U] reads > 7.00.

Staying with this test, now noted: Table 2, dimeric IAP antagonists.
For `CN[C@@H](C)C(=O)N[C@H](C(=O)N1CCC[C@H]1Cc1c(-c2c(C[C@@H]3CCCN3C(=O)[C@@H](NC(=O)[C@H](C)NC)C(C)C)c3cc(F)ccc3n2C2O[C@H](CO)[C@H](O)[C@H](O)[C@H]2O)[nH]c2ccc(F)cc12)C(C)C` (some centres unmarked) [AA], the pKd was > 7.00. Still for that read-out and setting: the result for `CN[C@@H](C)C(=O)N[C@H](C(=O)N1CCC[C@H]1Cc1c(-c2c(C[C@@H]3CCCN3C(=O)[C@@H](NC(=O)[C@H](C)NC)C(C)C)c3cc(F)ccc3n2C2O[C@H](CO)[C@@H](O)[C@H](O)[C@H]2O)[nH]c2ccc(F)cc12)C(C)C` (some centres unmarked) [CC] reads > 7.00.

With `CNC(C)C(=O)NC(C(=O)N1CCCC1Cc1c(-c2c(CC3CCCN3C(=O)C(NC(=O)C(C)NC)C(C)C)c3cc(F)ccc3n2C2OC(C)C(O)C(O)C2O)[nH]c2ccc(F)cc12)C(C)C` (centres unmarked) [DD], the pKd is > 7.00. In the case of `CNC(C)C(=O)NC(C(=O)N1CCCC1Cc1c(-c2c(CC3CCCN3C(=O)C(NC(=O)C(C)NC)C(C)OC)c3ccc(F)cc3n2C2OC(C)C(O)C(O)C2O)[nH]c2cc(F)ccc12)C(C)OC` (centres unmarked) [EE], the pKd is > 7.00.

In the case of `CNC(C)C(=O)NC(C(=O)N1CC(O)CC1Cc1c(-c2c(CC3CC(O)CN3C(=O)C(NC(=O)C(C)NC)C(C)OC)c3ccc(F)cc3n2C2OC(C)C(O)C(O)C2O)[nH]c2cc(F)ccc12)C(C)OC` (centres unmarked) [FF], the pKd is > 7.00. Still for that read-out and setting: for `CN[C@@H](C)C(=O)N[C@H](C(=O)N1CCCC1Cc1c(-c2c(C[C@@H]3CCCN3C(=O)[C@@H](NC(=O)[C@H](C)NC)C(C)C)c3ccc(F)cc3n2C2O[C@@H](C)[C@@H](O)[C@@H](O)[C@@H]2O)[nH]c2cc(F)ccc12)C(C)C` (some centres unmarked) [V] the value was > 7.00. `CC(C)C(NC(=O)CN)C(=O)N1CCCC1Cc1c(-c2c(CC3CCCN3C(=O)C(NC(=O)CN)C(C)C)c3ccc(F)cc3n2C2OC(C)C(O)C(O)C2O)[nH]c2cc(F)ccc12` (centres unmarked) [W] had a pKd of 6.00 to 7.00. The same measure, in the same setting: for `CN[C@@H](C)C(=O)N[C@H](C(=O)N1CCC[C@H]1Cc1c(-c2c(C[C@@H]3CCCN3C(=O)[C@@H](NC(=O)[C@H](C)NC)C(C)C)c3ccc(F)cc3n2C2OC[C@@H](O)[C@H](O)[C@H]2O)[nH]c2cc(F)ccc12)C(C)C` (some centres unmarked) [Y] the value was > 7.00.

Still in this test, the particulars now being: Table 3, monomeric IAP antagonists (piperidine-substituted).
Consider `CN[C@@H](C)C(=O)N[C@H](C(=O)N1CCCC1Cc1c(-c2ccc(F)cc2)n(C2CCNCC2)c2cc(F)ccc12)C(C)(C)C` (some centres unmarked) [HH], for which the pKd is > 7.00.

As to `CN[C@@H](C)C(=O)N[C@H](C(=O)N1CCC[C@H]1Cc1c(-c2ccc(F)cc2)n(C2CCNCC2)c2cc(F)ccc12)[C@@H](C)OC` [II], the pKd was > 7.00. On to `CC[C@H](NC)C(=O)N[C@H](C(=O)N1CCC[C@H]1Cc1c(-c2ccc(F)cc2)n(C2CCNCC2)c2cc(F)ccc12)[C@@H](C)OC` [JJ], for which the pKd is > 7.00.

`CN[C@H](C(=O)N[C@H](C(=O)N1CCC[C@H]1Cc1c(-c2ccc(F)cc2)n(C2CCNCC2)c2cc(F)ccc12)[C@@H](C)OC)C1CC1` [KK] showed a pKd of 6.00 to 7.00. `CN[C@@H](C)C(=O)N[C@H](C(=O)N1C[C@@H](O)C[C@H]1Cc1c(-c2ccc(F)cc2)n(C2CCNCC2)c2cc(F)ccc12)C(C)(C)C` [LL]: the pKd was > 7.00. For `CCN[C@@H](C)C(=O)N[C@H](C(=O)N1C[C@@H](O)C[C@H]1Cc1c(-c2ccc(F)cc2)n(C2CCNCC2)c2cc(F)ccc12)C(C)(C)C` [MM], the pKd was 6.00 to 7.00. In turn, `CN[C@@H](CO)C(=O)N[C@H](C(=O)N1C[C@@H](O)C[C@H]1Cc1c(-c2ccc(F)cc2)n(C2CCNCC2)c2cc(F)ccc12)C(C)(C)C` [NN] had a pKd of 6.00 to 7.00. Consider `CN[C@H](C(=O)N[C@H](C(=O)N1C[C@@H](O)C[C@H]1Cc1c(-c2ccc(F)cc2)n(C2CCNCC2)c2cc(F)ccc12)C(C)(C)C)C1CC1` [OO], for which the pKd is < 5.00.

Take `CN[C@@H](C)C(=O)N[C@H](C(=O)N1C[C@@H](O)C[C@H]1Cc1c(-c2ccc(F)cc2)n(C2CCNCC2)c2cc(F)ccc12)[C@@H](C)OC` [PP]: the pKd was > 7.00. Still for that read-out and setting: for `CCN[C@@H](C)C(=O)N[C@H](C(=O)N1C[C@@H](O)C[C@H]1Cc1c(-c2ccc(F)cc2)n(C2CCNCC2)c2cc(F)ccc12)[C@@H](C)OC` [QQ] the value was > 7.00; for `CC[C@H](NC)C(=O)N[C@H](C(=O)N1C[C@@H](O)C[C@H]1Cc1c(-c2ccc(F)cc2)n(C2CCNCC2)c2cc(F)ccc12)[C@@H](C)OC` [RR], > 7.00; for `CN[C@H](C(=O)N[C@H](C(=O)N1C[C@@H](O)C[C@H]1Cc1c(-c2ccc(F)cc2)n(C2CCNCC2)c2cc(F)ccc12)[C@@H](C)OC)C1CC1` [SS], 6.00 to 7.00.

A word on the pKd: it is −log10 of the Kd, conventionally taken in molar units. High values mean a small Kd, low ones a large Kd.
